According to US20250214977A1, “STAT6 INHIBITORS AND USES THEREOF” (Kymera Therapeutics, Inc., priority 2024, published 2025):

System: Phosphorylation of STAT6 in human A549 cells
Test: Phosphorylated STAT6 (pSTAT6) flow cytometry assay in human A549 cells
Assay type: cell-based
Details: read-out: STAT6 IL4 pSTAT6 assay in A549 cells: Average IC50
Source text: Example 3. Phosphorylated STAT6 (pSTAT6) Flow Cytometry Assay in Human A549 Cells
Phosphorylation of STAT6 in human A549 cells was quantitatively measured using flow cytometry technology.

| SMILES | IC50 |
| --- | --- |
| COc1cc(F)cnc1N1CCN(C(=O)c2cc3c(-c4cnn(C)c4-c4ccccc4)cc(C4=CCCN(C(=O)CCn5ccnn5)C4)c(F)c3[nH]2)CC1 [Example I-621] | < 100 nM |
| COc1cc(F)cnc1N1CCN(C(=O)c2cc3c(-c4ccc5c(c4)c(C4CC4)nn5C)cc(C4=CCCN(C(=O)CCn5ccnn5)C4)c(F)c3[nH]2)CC1 [Example I-622] | < 100 nM |
| COc1cc(F)cnc1N1CCN(C(=O)c2cc3c(-c4ccc5c(C)nn(C)c5c4)cc(C4=CCCN(C(=O)CCn5ccnn5)C4)c(F)c3[nH]2)CC1 [Example I-623] | < 100 nM |
| COc1cc(F)cnc1N1CCN(C(=O)c2cc3c(-c4ccc5nn(C)cc5c4)cc(C4=CCCN(C(=O)CCn5ccnn5)C4)c(F)c3[nH]2)CC1 [Example I-624] | < 100 nM |
| COc1cc(F)cnc1N1CCN(C(=O)c2cc3c(-c4cnn(-c5ccccc5)c4C)cc(C4=CCCN(C(=O)CCn5ccnn5)C4)c(F)c3[nH]2)CC1 [Example I-625] | < 100 nM |
| COc1cc(F)cnc1N1CCN(C(=O)c2cc3c(-c4cccc(-c5ccncc5)c4)cc(C4=CCCN(C(=O)CCn5ccnn5)C4)c(F)c3[nH]2)CC1 [Example I-626] | < 100 nM |
| COc1cc(F)cnc1N1CCN(C(=O)c2cc3c(-c4cccnc4C4CC4)cc(C4=CCCN(C(=O)CCn5ccnn5)C4)c(F)c3[nH]2)CC1 [Example I-628] | < 100 nM |
| COc1cc(F)cnc1N1CCN(C(=O)c2cc3c(-c4cccc(-c5cccnc5)c4)cc(C4=CCCN(C(=O)CCn5ccnn5)C4)c(F)c3[nH]2)CC1 [Example I-629] | < 100 nM |
| COc1cc(F)cnc1N1CCN(C(=O)c2cc3c(-c4cc(C)nc5ccccc45)cc(C4=CCCN(C(=O)CCn5ccnn5)C4)c(F)c3[nH]2)CC1 [Example I-630] | < 100 nM |
| COc1cc(F)cnc1N1CCN(C(=O)c2cc3c(-c4c(F)ccc5ccc(C)nc45)cc(C4=CCCN(C(=O)CCn5ccnn5)C4)c(F)c3[nH]2)CC1 [Example I-631] | < 100 nM |
| COc1cc(F)cnc1N1CCN(C(=O)c2cc3c(-c4cc(C)nc(C)c4)cc(C4=CCCN(C(=O)CCn5ccnn5)C4)c(F)c3[nH]2)CC1 [Example I-632] | < 100 nM |
| COc1cc(F)cnc1N1CCN(C(=O)c2cc3c(-c4cc(C)cc5cccnc45)cc(C4=CCCN(C(=O)CCn5ccnn5)C4)c(F)c3[nH]2)CC1 [Example I-633] | < 100 nM |
| CC#Cc1cc(-c2cc(C3=CCCN(C(=O)CCn4ccnn4)C3)c(F)c3[nH]c(C(=O)N4CCN(c5ncc(F)cc5OC)CC4)cc23)ccn1 [Example I-634] | < 100 nM |
| COc1cc(F)cnc1N1CCN(C(=O)c2cc3c(-c4ccc(C)c5ncccc45)cc(C4=CCCN(C(=O)CCn5ccnn5)C4)c(F)c3[nH]2)CC1 [Example I-635] | < 100 nM |
| COc1cc(F)cnc1N1CCN(C(=O)c2cc3c(-c4cncc(C5CC5)c4)cc(C4=CCCN(C(=O)CCn5ccnn5)C4)c(F)c3[nH]2)CC1 [Example I-637] | < 100 nM |
| COc1cc(F)cnc1N1CCN(C(=O)c2cc3c(-c4cccc(OC(C)C)c4)cc(C4=CCCN(C(=O)CCn5ccnn5)C4)c(F)c3[nH]2)CC1 [Example I-638] | < 100 nM |
| COc1cc(F)cnc1N1CCN(C(=O)c2cc3c(C4=CCOC4)cc(C4=CCCN(C(=O)CCn5ccnn5)C4)c(F)c3[nH]2)CC1 [Example I-639] | < 100 nM |
| COc1ccc(-c2cc(C3=CCCN(C(=O)CCn4ccnn4)C3)c(F)c3[nH]c(C(=O)N4CCN(c5ncc(F)cc5OC)CC4)cc23)c(C2CC2)c1 [Example I-641] | < 100 nM |
| CCOc1cc(-c2cc(C3=CCCN(C(=O)CCn4ccnn4)C3)c(F)c3[nH]c(C(=O)N4CCN(c5ncc(F)cc5OC)CC4)cc23)cc(F)c1F [Example I-642] | 100 to 1000 nM |
| CCOc1c(F)cccc1-c1cc(C2=CCCN(C(=O)CCn3ccnn3)C2)c(F)c2[nH]c(C(=O)N3CCN(c4ncc(F)cc4OC)CC3)cc12 [Example I-643] | < 100 nM |
| COc1cc(F)cnc1N1CCN(C(=O)c2cc3c(C=C4CCOCC4)cc(C4=CCCN(C(=O)CCn5ccnn5)C4)c(F)c3[nH]2)CC1 [Example I-644] | < 100 nM |
| COc1cc(F)cnc1N1CCN(C(=O)c2cc3c(-c4ccccc4C4CC4)cc(C4=CCCN(C(=O)CCn5ccnn5)C4)c(F)c3[nH]2)CC1 [Example I-645] | < 100 nM |
| COc1cc(F)cnc1N1CCN(C(=O)c2cc3c(-c4cc(C)ncc4C)cc(C4=CCCN(C(=O)CCn5ccnn5)C4)c(F)c3[nH]2)CC1 [Example I-646] | < 100 nM |
| COc1cc(F)cnc1N1CCN(C(=O)c2cc3c(-c4cncc(-c5ccccc5)c4)cc(C4=CCCN(C(=O)CCn5ccnn5)C4)c(F)c3[nH]2)CC1 [Example I-647] | < 100 nM |
| COc1cc(F)cnc1N1CCN(C(=O)c2cc3c(-c4ccc(C)c(C#N)c4)cc(C4=CCCN(C(=O)CCn5ccnn5)C4)c(F)c3[nH]2)CC1 [Example I-648] | < 100 nM |
| COc1cc(F)cnc1N1CCN(C(=O)c2cc3c(-c4cccc(C5(C#N)CC5)c4)cc(C4=CCCN(C(=O)CCn5ccnn5)C4)c(F)c3[nH]2)CC1 [Example I-649] | < 100 nM |
| COc1cc(F)cnc1N1CCN(C(=O)c2cc3c(-c4cc(C5(C#N)CC5)ccc4F)cc(C4=CCCN(C(=O)CCn5ccnn5)C4)c(F)c3[nH]2)CC1 [Example I-650] | < 100 nM |

| SMILES | IC50 |
| --- | --- |
| COc1cc(F)cnc1N1CCN(C(=O)c2cc3c(-c4cncc(OC(F)F)c4)cc(C4=CCCN(C(=O)CCn5ccnn5)C4)c(F)c3[nH]2)CC1 [Example I-651] | < 100 nM |
| CCCOc1ncccc1-c1cc(C2=CCCN(C(=O)CCn3ccnn3)C2)c(F)c2[nH]c(C(=O)N3CCN(c4ncc(F)cc4OC)CC3)cc12 [Example I-652] | < 100 nM |
| COc1cc(F)cnc1N1CCN(C(=O)c2cc3c(-c4ccnc(OC(F)F)c4)cc(C4=CCCN(C(=O)CCn5ccnn5)C4)c(F)c3[nH]2)CC1 [Example I-653] | < 100 nM |
| CCCOc1ncc(C)cc1-c1cc(C2=CCCN(C(=O)CCn3ccnn3)C2)c(F)c2[nH]c(C(=O)N3CCN(c4ncc(F)cc4OC)CC3)cc12 [Example I-654] | < 100 nM |
| COc1cc(F)cnc1N1CCN(C(=O)c2cc3c(-c4cncc(OC(C)C)c4)cc(C4=CCCN(C(=O)CCn5ccnn5)C4)c(F)c3[nH]2)CC1 [Example I-655] | < 100 nM |
| COc1cc(F)cnc1N1CCN(C(=O)c2cc3c(-c4ccnc(F)c4OC)cc(C4=CCCN(C(=O)CCn5ccnn5)C4)c(F)c3[nH]2)CC1 [Example I-656] | < 100 nM |
| COc1cc(F)cnc1N1CCN(C(=O)c2cc3c(C4=CCN(C(C)=O)CC4)cc(C4=CCCN(C(=O)CCn5ccnn5)C4)c(F)c3[nH]2)CC1 [Example I-657] | < 100 nM |
| COc1cc(F)cnc1N1CCN(C(=O)c2cc3c(-c4cccc5c4CC[C@H]5O)cc(C4=CCCN(C(=O)CCn5ccnn5)C4)c(F)c3[nH]2)CC1 [Example I-658] | < 100 nM |
| COc1cc(F)cnc1N1CCN(C(=O)c2cc3c(-c4cc(O)cc5ccccc45)cc(C4=CCCN(C(=O)CCn5ccnn5)C4)c(F)c3[nH]2)CC1 [Example I-659] | < 100 nM |
| COCOc1ccc(F)cc1-c1cc(C2=CCCN(C(=O)CCn3ccnn3)C2)c(F)c2[nH]c(C(=O)N3CCN(c4ncc(F)cc4OC)CC3)cc12 [Example I-660] | < 100 nM |
| CCOc1ccc(-c2cc(C3=CCCN(C(=O)CCn4ccnn4)C3)c(F)c3[nH]c(C(=O)N4CCN(c5ncc(F)cc5OC)CC4)cc23)c(OC)c1 [Example I-661] | < 100 nM |
| CCc1ccccc1-c1cc(C2=CCCN(C(=O)CCn3cccn3)C2)c(F)c2[nH]c(C(=O)N3CCN(c4ncc(F)cc4OC)CC3)cc12 [Example I-662] | < 100 nM |
| COc1cnccc1-c1cc(C2=CCCN(C(=O)CCn3cccn3)C2)c(F)c2[nH]c(C(=O)N3CCN(c4ncc(F)cc4OC)CC3)cc12 [Example I-663] | < 100 nM |
| COc1ccncc1-c1cc(C2=CCCN(C(=O)CCn3cccn3)C2)c(F)c2[nH]c(C(=O)N3CCN(c4ncc(F)cc4OC)CC3)cc12 [Example I-664] | < 100 nM |
| CCc1ccccc1-c1cc(C2=CCCN(C(=O)CCn3ccnn3)C2)c(F)c2[nH]c(C(=O)N3CCN(c4ncc(F)cc4OC)CC3)cc12 [Example I-665] | < 100 nM |
| COc1cnccc1-c1cc(C2=CCCN(C(=O)CCn3ccnn3)C2)c(F)c2[nH]c(C(=O)N3CCN(c4ncc(F)cc4OC)CC3)cc12 [Example I-666] | > 100000 nM |
| COc1cc(C)ncc1-c1cc(C2=CCCN(C(=O)CCn3ccnn3)C2)c(F)c2[nH]c(C(=O)N3CCN(c4ncc(F)cc4OC)CC3)cc12 [Example I-667] | > 100000 nM |
| COc1cc(F)cnc1N1CCN(C(=O)c2cc3c(-c4cnccc4C(C)C)cc(C4=CCCN(C(=O)CCn5ccnn5)C4)c(F)c3[nH]2)CC1 [Example I-668] | > 100000 nM |
| COc1cc(F)cnc1N1CCN(C(=O)c2cc3c(-c4cnccc4C(C)C)cc(C4=CCCN(C(=O)CCn5cccn5)C4)c(F)c3[nH]2)CC1 [Example I-669] | < 100 nM |
| COCOc1cc(F)ccc1-c1cc(C2=CCCN(C(=O)CCn3ccnn3)C2)c(F)c2[nH]c(C(=O)N3CCN(c4ncc(F)cc4OC)CC3)cc12 [Example I-670] | < 100 nM |
| COc1cc(F)cnc1N1CCN(C(=O)c2cc3c(-c4cnn(-c5ccccc5)c4)cc(C4=CCCN(C(=O)CCn5ccnn5)C4)c(F)c3[nH]2)CC1 [Example I-671] | 100 to 1000 nM |
| COc1cc(F)cnc1N1CCN(C(=O)c2cc3c(-c4cnc5c(C)cccc5c4)cc(C4=CCCN(C(=O)CCn5ccnn5)C4)c(F)c3[nH]2)CC1 [Example I-672] | < 100 nM |
| COc1cc(F)cnc1N1CCN(C(=O)c2cc3c(-c4cccc(C)c4)cc(C4=CCCN(C(=O)CCn5ccnn5)C4)c(F)c3[nH]2)CC1 [Example I-673] | < 100 nM |
| COc1cc(F)cnc1N1CCN(C(=O)c2cc3c(-c4cccc(C5CC5)c4)cc(C4=CCCN(C(=O)CCn5ccnn5)C4)c(F)c3[nH]2)CC1 [Example I-674] | 100 to 1000 nM |
| C=C(C)c1cc(C2=CCCN(C(=O)CCn3ccnn3)C2)c(F)c2[nH]c(C(=O)N3CCN(c4ncc(F)cc4OC)CC3)cc12 [Example I-675] | < 100 nM |
| COc1cc(F)cnc1N1CCN(C(=O)c2cc3c(-c4ccc(F)c(C)c4)cc(C4=CCCN(C(=O)CCn5ccnn5)C4)c(F)c3[nH]2)CC1 [Example I-676] | 100 to 1000 nM |
| CCC/C=C/c1cc(C2=CCCN(C(=O)CCn3ccnn3)C2)c(F)c2[nH]c(C(=O)N3CCN(c4ncc(F)cc4OC)CC3)cc12 [Example I-677] | < 100 nM |
